Test results reported in patent US11026958B2, “Substituted 6-membered aryl or heteroaryl allosteric modulators of nicotinic acetylcholine receptors” (Merck Sharp & Dohme Corp., priority 2016, dated 2021).
Where two headings read alike, the source gives them in different places.

Target: human α7 nAChR (Homo sapiens (Human), UniProt P36544)
Assay: Automated patch-clamp electrophysiology functional assay (Assay A), IonFlux HT
Assay type: cell-based
Conditions: HEK cell line stably expressing human RIC-3 and human α7, whole-cell population patch, 40 μM acetylcholine
Procedure: The α7 nAChR positive allosteric modulator (PAM) activity of the present compounds may be tested using assays known in the art. The α7 nAChR PAMs described herein have activities in an automated patch-clamp electrophysiology functional assay as described in the examples. The assay was performed using the IonFlux HT in a whole-cell, population patch configuration. See Golden et al. Assay Drug Dev. Technol. (2011) 9:608-619. The compounds were assessed for their ability to modulate the function of the human α7 nAChR stably expressed in a HEK cell line both in the presence, and in the absence of the natural α7 agonist acetylcholine. By performing a series of such measurements at different concentrations, the effective concentration of the α7 nAChR PAMs (EC50) was determined. See Spencer et al. Assay Drug Dev. Technol. (2012) 10:313-324.
Automated patch-clamp electrophysiology was performed using the IonFlux HT (Fluxion Biosciences Inc., San Francisco, Calif.) in the whole-cell, population patch configuration. Test compounds were assessed for their ability to modulate the function of the α7 nicotinic acetylcholine receptor both in the presence, and in the absence of the natural α7 agonist acetylcholine. A HEK cell line stably expressing both human RIC-3 and human α7 (PrecisION hnAChR α7/RIC-3, Eurofins Pharma, St. Charles, Mo.) was cultured in 175 cm^2 triple-layer tissue culture flasks to no more than 90% confluency in DMEM/F-12 growth media supplemented with 10% heat-inactivated fetal bovine serum, 1% non-essential amino acids, 0.625 μg/mL Puromycin, and 400 μg/mL Geneticin. Immediately prior to assay, cells were detached by first aspirating growth media, rinsing with Dulbecco's phosphate buffered saline, and then adding 10 mL of Accutase (Innovative Cell Technologies, San Diego, Calif.) to the flask and then incubating at 37° C. for 5 minutes. Detached cells were then recovered by the addition of 40 mL of CHO-serum-free media supplemented with 25 mM HEPES, and rocked gently in a 50 mL conical tube for 20 minutes prior to patch-clamp assay. After recovery, cells were pelleted by centrifugation at 1,000 RPM for 1 minute in a compact bench top centrifuge; recovery media was aspirated and cells were resuspended in external recording solution (150 mM NaCl, 5 mM KCl, 2 mM CaCl2, 1 mM MgCl2, 10 mM HEPES, 12 mM dextrose) to a density of 5.0×10^6 cells/mL. The cell suspension was added to the cell inlet wells on an IonFlux HT population patch plate which had previously been rinsed and primed with deionized H2O. Test compounds were serially diluted in DMSO and then resuspended to the final test concentration in external recording solution, with, or without 40 μM acetylcholine added to the external recording solution; test compounds were then transferred to the IonFlux HT population patch plate. Internal recording solution (110 mM TrisPO4, 28 mM TrisBase, 0.1 mM CaCl2, 2 mM MgCl2, 11 mM EGTA, 4 mM MgATP) was added to the internal recording solution inlet wells on the IonFlux HT patch plate previously loaded with cells and test compounds, and the plate loaded into the IonFlux HT instrument. A protocol was executed on the IonFlux HT to trap the cells, break into the cells, and establish the whole-cell recording configuration; cells were voltage-clamped at a holding potential of −60 mV for the duration of the experiment, all experiments were conducted at room temperature, and the IonFlux HT injection pressure was 8 psi for solution applications. Upon establishing the whole-cell configuration, external recording solution was perfused into the recording chambers for 120 seconds and then 40 μM acetylcholine was applied for 1 second and immediately washed off with external recording solution for 60 seconds. The 40 μM acetylcholine-evoked α7 current served as the current response to which subsequent test compound effects, in the presence, or in the absence of 40 μM acetylcholine would be quantified relative to. […]

human α7 nAChR, sequence (P36544 23-502): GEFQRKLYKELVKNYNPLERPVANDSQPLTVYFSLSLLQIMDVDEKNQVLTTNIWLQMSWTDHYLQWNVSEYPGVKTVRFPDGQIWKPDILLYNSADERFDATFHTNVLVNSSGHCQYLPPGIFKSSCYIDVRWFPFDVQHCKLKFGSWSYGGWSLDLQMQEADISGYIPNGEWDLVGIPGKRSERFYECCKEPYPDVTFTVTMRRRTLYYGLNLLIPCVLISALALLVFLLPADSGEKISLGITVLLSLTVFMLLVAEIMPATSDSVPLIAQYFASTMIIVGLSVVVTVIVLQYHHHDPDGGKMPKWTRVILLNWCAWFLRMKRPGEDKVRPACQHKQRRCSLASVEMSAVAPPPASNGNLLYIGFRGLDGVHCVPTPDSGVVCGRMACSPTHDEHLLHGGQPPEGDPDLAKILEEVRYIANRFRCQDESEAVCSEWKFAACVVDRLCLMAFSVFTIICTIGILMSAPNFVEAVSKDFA

EC50 (read-out: α7 nAChR EC50) [nM]	EC50 (read-out: α7 nAChR Potency) [nM]	Compound
870	500 to 5000	NS(=O)(=O)c1ccc([C@@H]2C[C@H]2c2ccc(-n3cccn3)nc2)cc1 (racemic) [Example G3, 4-{trans-2-[6-(1H-Pyrazol-1-yl)pyridin-3-yl]cyclopropyl}benzenesulfonamide]
3300	500 to 5000	NS(=O)(=O)c1ccc([C@@H]2C[C@H]2c2cccc(-n3cccn3)n2)cc1 (racemic) [Example A8, 4-{trans-2-[6-(1H-Pyrazol-1-yl)pyridin-2-yl]cyclopropyl}benzenesulfonamide]
–	500 to 5000	CC(C)c1ccc(C2CC2c2ccc(S(N)(=O)=O)cc2)nc1 (single isomer, unassigned) [Example A5, 4-{trans-2-[5-(Propan-2-yl)pyridin-2-yl]cyclopropyl}benzenesulfonamide]
1200	500 to 5000	CC(C)c1cc(C2CC2c2ccc(S(N)(=O)=O)cc2)ccn1 (single isomer, unassigned) [Example 8, 4-{trans-2-[2-(Propan-2-yl)pyridin-4-yl]cyclopropyl}benzenesulfonamide]
1400	500 to 5000	CC1(C)[C@H](c2ccc(S(N)(=O)=O)cc2)[C@H]1c1nccc(-c2cncc(C(F)(F)F)c2)n1 [Example 9, 4-[(1R,3R)-2,2-Dimethyl-3-{4-[5-(trifluoromethyl)pyridin-3-yl]pyrimidin-2-yl}cyclopropyl]benzenesulfonamide]
1600	500 to 5000	NS(=O)(=O)c1ccc([C@H]2[C@H](c3nccc(-c4cccc(F)c4)n3)C2(F)F)cc1 [Example C6, 4-{(1R,3R)-2,2-Difluoro-3-[4-(3-fluorophenyl)pyrimidin-2-yl]cyclopropyl}benzenesulfonamide]
8800	5000 to 50000	CC(C)c1ccc(C2CC2c2ccc(S(N)(=O)=O)cc2)nn1 (racemic) [Example B2, 4-{trans-2-[6-(Propan-2-yl)pyridazin-3-yl]cyclopropyl}benzenesulfonamide]
1500	500 to 5000	NS(=O)(=O)c1ccc([C@@H]2C[C@H]2c2ccc(C3CCCC3)cn2)cc1 (racemic) [Example A13, 4-[trans-2-(5-Cyclopentylpyridin-2-yl)cyclopropyl]benzenesulfonamide]
500	100 to 500	CC(C)c1cccc(C2CC2c2ccc(S(N)(=O)=O)cc2)n1 (single isomer, unassigned) [Example 1, 4-{trans-2-[6-(Propan-2-yl)pyridin-2-yl]cyclopropyl}benzenesulfonamide]
–	500 to 5000	CC(C)c1cccc(C2CC2c2ccc(S(N)(=O)=O)cc2)n1 (single isomer, unassigned) [Example A1, 4-{trans-2-[6-(Propan-2-yl)pyridin-2-yl]cyclopropyl}benzenesulfonamide]
1500	500 to 5000	NS(=O)(=O)c1ccc(C2CC2c2cccc(C3CCCC3)n2)cc1 (single isomer, unassigned) [Example 3, 4-[trans-2-(6-Cyclopentylpyridin-2-yl)cyclopropyl]benzenesulfonamide]
1000	500 to 5000	NS(=O)(=O)c1ccc(C2CC2c2ccc(C3CCCC3)cn2)cc1 (single isomer, unassigned) [Example 4, 4-[trans-2-(5-Cyclopentylpyridin-2-yl)cyclopropyl]benzenesulfonamide]
–	500 to 5000	CC(C)c1cncc(C2CC2c2ccc(S(N)(=O)=O)cc2)n1 (racemic) [Example B3, 4-{trans-2-[6-(Propan-2-yl)pyrazin-2-yl]cyclopropyl}benzenesulfonamide]
–	500 to 5000	CC(C)c1ccc(C2CC2c2ccc(S(N)(=O)=O)cc2)cn1 (racemic) [Example G1, 4{-trans-2-[6-(Propan-2-yl)pyridin-3-yl]cyclopropyl}benzenesulfonamide]
3400	500 to 5000	CC(C)(C#N)c1ccc([C@@H]2C[C@H]2c2ccc(S(N)(=O)=O)cc2)cn1 (racemic) [Example G5, 4-{trans-2-[6-(2-Cyanopropan-2-yl)pyridin-3-yl]cyclopropyl}benzenesulfonamide]
2900	500 to 5000	CN(C)c1nccc(C2CC2c2ccc(S(N)(=O)=O)cc2)n1 (racemic) [Example D1, 4-{trans-2-[2-(Dimethylamino)pyrimidin-4-yl]cyclopropyl}benzenesulfonamide]
700	500 to 5000	CC(C)c1ccc(C2CC2c2ccc(S(N)(=O)=O)cc2)nc1 (racemic) [Example A6, 4-{trans-2-[5-(Propan-2-yl)pyridin-2-yl]cyclopropyl}benzenesulfonamide]
320	100 to 500	Cc1nc(-c2cccc([C@@H]3C[C@H]3c3ccc(S(N)(=O)=O)cc3)c2)no1 (relative stereo) [Example 7, 4-{trans-2-[3-(5-Methyl-1,2,4-oxadiazol-3-yl)phenyl]cyclopropyl}benzenesulfonamide]

Compound	EC50 (read-out: α7 nAChR EC50) [nM]	EC50 (read-out: α7 nAChR Potency) [nM]
CC(C)c1ccc(C2C(c3ccc(S(N)(=O)=O)cc3)C2[Si](C)(C)C)cn1 (stereo not drawn) [Example B1, 4-{2-[6-(Propan-2-yl)pyridin-3-yl]-3-(trimethylsilyl)cyclopropyl}benzenesulfonamide]	1600	500 to 5000
4-{trans-2-[2-(Benzylamino)pyrimidin-4-yl]cyclopropyl}benzenesulfonamide [Example D3]	–	500 to 5000
4-(trans-2-{2-[(4-Fluorophenyl)amino]pyrimidin-4-yl}cyclopropyl)benzenesulfonamide [Example D8]	3800	500 to 5000
tert-Butyl 4-{4-[trans-2-(4-sulfamoylphenyl)cyclopropyl]pyrimidin-2-yl}piperazine-1-carboxylate [Example D4]	720	500 to 5000
4-{trans-2-[2-(Pyrrolidin-1-yl)pyrimidin-4-yl]cyclopropyl}benzenesulfonamide [Example D7]	900	500 to 5000
NS(=O)(=O)c1ccc(C2CC2c2cncc(N3CCCC3)c2)cc1 (racemic) [Example G2, 4-{trans-2-[5-(Pyrrolidin-1-yl)pyridin-3-yl]cyclopropyl}benzenesulfonamide]	3200	500 to 5000
4-(trans-2-{2-[(2,2-Dimethylpropyl)amino]pyrimidin-4-yl}cyclopropyl)benzenesulfonamide [Example D5]	1800	500 to 5000
